Measured values taken from patent US11130769B2 (Prelude Therapeutics Incorporated, priority 2018, dated 2021).

Experiments:
MCL-1 = MCL-1 (Homo sapiens (Human), UniProt Q07820); experiment: Cell free Mcl-1:Bim affinity assay (fluorescence polarization competition); format: binding; settings: 15 nM MCL-1, 5 nM FITC-Bim, 1 hour at room temperature; class symbols; read-out: BIM_Ki
In short: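 Compounds competed with FITC-labelled Bim peptide (5 nM) for MCL-1 (15 nM) in HEPES/NaCl buffer with 1% DMSO, 1 h at room temperature. Fluorescence polarization (535 nm emission) gave % inhibition versus DMSO and positive controls; IC50 from 10-point curves, converted to Ki by the Nikolovska-Coleska equation.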

H929 cells = experiment: Cell viability assay (H929 10 FBS); format: cell-based; settings: Homo sapiens, NCI-H929, 24 hours, read-out: H929_10FBS IC50
In short: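 H929 cells, 4000/well, in RPMI 1640 with 10% FBS, sodium pyruvate, HEPES and glucose were exposed to compound 24 h at 37 °C. Viability read as luminescence after 30-60 min at RT with CellTiter-Glo or ATPlite 1 Step.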

Sequence of MCL-1 (Q07820 whole entry): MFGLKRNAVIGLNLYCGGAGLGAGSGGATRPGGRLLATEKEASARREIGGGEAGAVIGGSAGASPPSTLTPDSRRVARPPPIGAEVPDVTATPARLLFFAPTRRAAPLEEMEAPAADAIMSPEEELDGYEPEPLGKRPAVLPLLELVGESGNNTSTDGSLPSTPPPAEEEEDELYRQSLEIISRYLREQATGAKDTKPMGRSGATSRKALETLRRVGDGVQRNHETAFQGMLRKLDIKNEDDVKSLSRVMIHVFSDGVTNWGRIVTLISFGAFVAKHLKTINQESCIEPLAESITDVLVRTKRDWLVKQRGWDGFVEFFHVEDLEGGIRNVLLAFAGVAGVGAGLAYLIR

Work on CC1(C)OC/C=C/[C@H](OCC(=O)N2CC(F)C2)[C@@H]2CC[C@H]2CN2C[C@@]3(CCCc4cc(Cl)ccc43)COc3ccc(cc32)S(=O)(=O)NC1=O [Example 281, (3R,6R,7S,8E,22S)-6′-Chloro-7-[2-(3-fluoroazetidin-1-yl)-2-oxo-ethoxy]-12,12-dimethyl-15,15-dioxo-spiro[11,20-dioxa-15-thia-1,14-diazatetracyclo[14.7.2.03,6.019,24]pentacosa-8,16,18,24-tetraene-22,1′-tetralin]-13-one] yielded a Ki (MCL-1) of under 1 nM and an IC50 (H929 cells) of under 500 nM.

CN1C(=O)OC[C@@H]2CC[C@H]2CN2C[C@@]3(CCCc4cc(Cl)ccc43)COc3ccc(cc32)S(=O)(=O)NC(=O)N2CC[C@@H]1C2 [Example 101, (3R,6R,11R,24S)-6′-Chloro-10-methyl-17,17-dioxo-spiro[8,22-dioxa-17-thia-1,10,14,16-tetrazapentacyclo[16.7.2.111,14.03,6.021,26]octacosa-18(27),19,21(26)-triene-24,1′-tetralin]-9,15-dione] was tested, and the Ki (MCL-1) was under 1 nM and the IC50 (H929 cells) was over 1000 nM.

Compound CN(C)[C@H]1CCN(C(=O)O[C@H]2/C=C/COC(C)(C)C(=O)NS(=O)(=O)c3ccc4c(c3)N(C[C@@H]3CC[C@H]32)C[C@@]2(CCCc3cc(Cl)ccc32)CO4)C1 [Example 154, [(3R,6R,7S,8E,22S)-6′-Chloro-12,12-dimethyl-13,15,15-trioxo-spiro[11,20-dioxa-15-thia-1,14-diazatetracyclo[14.7.2.03,6.019,24]pentacosa-8,16,18,24-tetraene-22,1′-tetralin]-7-yl] (3S)-3-(dimethylamino)pyrrolidine-1-carboxylate] has a Ki (MCL-1) of under 1 nM and an IC50 (H929 cells) of under 500 nM.

In the case of CN(C)CCN(C)C(=O)O[C@H]1/C=C/CN(C)C(C)(C)C(=O)NS(=O)(=O)c2ccc3c(c2)N(C[C@@H]2CC[C@H]21)C[C@@]1(CCCc2cc(Cl)ccc21)CO3 [Example 213, [(3R,6R,7S,8E,22S)-6′-Chloro-11,12,12-trimethyl-13,15,15-trioxo-spiro[20-oxa-15-thia-1,11,14-triazatetracyclo[14.7.2.03,6.019,24]pentacosa-8,16,18,24-tetraene-22,1′-tetralin]-7-yl] N-[2-(dimethylamino)ethyl]-N-methyl-carbamate], the Ki (MCL-1) is reported as under 1 nM and the IC50 (H929 cells) is reported as under 500 nM.

CO[C@@H]1/C=C\CN[C@@H](C)C(=O)NS(=O)(=O)c2ccc3c(c2)N(C[C@@H]2CC[C@H]21)C[C@@]1(CCCc2cc(Cl)ccc21)CO3 [Example 118, (3R,6R,7R,8Z,12S,22S)-6′-Chloro-7-methoxy-12-methyl-15,15-dioxo-spiro[20-oxa-15-thia-1,11,14-triazatetracyclo[14.7.2.03,6.019,24]pentacosa-8,16(25),17,19(24)-tetraene-22,1′-tetralin]-13-one] gave a Ki (MCL-1) of 1 to 100 nM and an IC50 (H929 cells) of over 1000 nM.

With CO[C@@H]1/C=C/CCN(C)C(=O)NS(=O)(=O)c2ccc3c(c2)N(C[C@@H]2CC[C@H]21)C[C@@]1(CCCc2cc(Cl)ccc21)CO3 [Example 107, (3R,6R,7R,8E,22S)-6′-Chloro-7-methoxy-12-methyl-15,15-dioxo-spiro[20-oxa-15-thia-1,12,14-triazatetracyclo[14.7.2.03,6.019,24]pentacosa-8,16,18,24-tetraene-22,1′-tetralin]-13-one] the Ki (MCL-1) was 1 to 100 nM and the IC50 (H929 cells) was under 1000 nM.

Work on CC1(C)OC/C=C/[C@H](OCCN2CC(F)(F)C2)[C@@H]2CC[C@H]2CN2C[C@@]3(CCCc4cc(Cl)ccc43)COc3ccc(cc32)S(=O)(=O)NC1=O [Example 258, (3R,6R,7S,8E,22S)-6′-Chloro-7-[2-(3,3-difluoroazetidin-1-yl)ethoxy]-12,12-dimethyl-15,15-dioxo-spiro[11,20-dioxa-15-thia-1,14-diazatetracyclo[14.7.2.03,6.019,24]pentacosa-8,16,18,24-tetraene-22,1′-tetralin]-13-one] yielded a Ki (MCL-1) of under 1 nM and an IC50 (H929 cells) of under 500 nM.

Compound CN1C/C=C/[C@H](OC(=O)N2CCOCC2)[C@@H]2CC[C@H]2CN2C[C@@]3(CCCc4cc(Cl)ccc43)COc3ccc(cc32)S(=O)(=O)NC(=O)C1(C)C [Example 199, [(3R,6R,7S,8E,22S)-6′-Chloro-11,12,12-trimethyl-13,15,15-trioxo-spiro[20-oxa-15-thia-1,11,14-triazatetracyclo[14.7.2.03,6.019,24]pentacosa-8,16,18,24-tetraene-22,1′-tetralin]-7-yl]morpholine-4-carboxylate] has a Ki (MCL-1) of under 1 nM and an IC50 (H929 cells) of under 500 nM.

Work on COC1CCN(C(=O)O[C@H]2/C=C/COC(C)(C)C(=O)NS(=O)(=O)c3ccc4c(c3)N(C[C@@H]3CC[C@H]32)C[C@@]2(CCCc3cc(Cl)ccc32)CO4)CC1 [Example 51, [(3R,6R,7S,8E,22S)-6′-Chloro-12,12-dimethyl-13,15,15-trioxo-spiro[11,20-dioxa-15-thia-1,14-diazatetracyclo[14.7.2.03,6.019,24]pentacosa-8,16,18,24-tetraene-22,1′-tetralin]-7-yl] 4-methoxypiperidine-1-carboxylate] yielded a Ki (MCL-1) of under 1 nM and an IC50 (H929 cells) of under 500 nM.

In the case of CC1(C)OC/C=C/[C@H](OCC(=O)N[C@@H]2CCOC2)[C@@H]2CC[C@H]2CN2C[C@@]3(CCCc4cc(Cl)ccc43)COc3ccc(cc32)S(=O)(=O)NC1=O [Example 284, 2-[(3R,6R,7S,8E,22S)-6′-Chloro-12,12-dimethyl-13,15,15-trioxo-spiro[11,20-dioxa-15λ6-thia-1,14-diazatetracyclo[14.7.2.03,6.019,24]pentacosa-8,16,18,24-tetraene-22,1′-tetralin]-7-yl]oxy-N-[(3R)-tetrahydrofuran-3-yl]acetamide], the Ki (MCL-1) is reported as under 1 nM and the IC50 (H929 cells) is reported as under 500 nM.

For CN1C(=O)OC[C@@H]2CC[C@H]2CN2C[C@@]3(CCCc4cc(Cl)ccc43)COc3ccc(cc32)S(=O)(=O)NC(=O)N2CC[C@H]1C2 [Example 103, (3R,6R,11S,24S)-6′-Chloro-10-methyl-17,17-dioxo-spiro[8,22-dioxa-17λ^6-thia-1,10,14,16-tetrazapentacyclo[16.7.2.1^11,14.0{circumflex over (°)}3,6.0^21,26]octacosa-18,20,26-triene-24,1′-tetralin]-9,15-dione], the Ki (MCL-1) was under 1 nM and the IC50 (H929 cells) was over 1000 nM.

Compound CN(C(=O)O[C@H]1/C=C/COC(C)(C)C(=O)NS(=O)(=O)c2ccc3c(c2)N(C[C@@H]2CC[C@H]21)C[C@@]1(CCOc2cc(Cl)ccc21)CO3)[C@@H]1CCOC1 [Example 301, [(3R,6R,7S,8E,22S)-7′-Chloro-12,12-dimethyl-13,15,15-trioxo-spiro[11,20-dioxa-15-thia-1,14-diazatetracyclo[14.7.2.03,6.019,24]pentacosa-8,16,18,24-tetraene-22,4′-chromane]-7-yl] N-methyl-N-[(3R)-tetrahydrofuran-3-yl]carbamate] has a Ki (MCL-1) of under 1 nM and an IC50 (H929 cells) of under 500 nM.

For CO[C@H]1/C=C/COCC(=O)NS(=O)(=O)c2ccc3c(c2)N(C[C@@H]2CC[C@H]21)C[C@@]1(CCCc2cc(Cl)ccc21)CO3 [Example 111, (3R,6R,7S,8E,22S)-6′-Chloro-7-methoxy-15,15-dioxo-spiro[[11,20]dioxa[15]thia-1,14-diazatetracyclo[14.7.2.03,6.019,24]pentacosa[8,16(25),17,19(24)]tetraene-22,1′-tetralin]-13-one], the Ki (MCL-1) was 1 to 100 nM and the IC50 (H929 cells) was over 1000 nM.
